For this assay, the target named is T1, human CCR-3 (Homo sapiens, UniProt P51677).
T1 construct: expressed in transfected cells; host or cells: rat basophil leukaemia (RBL-2H3) cells, membrane preparation
T1 sequence (P51677 1-355): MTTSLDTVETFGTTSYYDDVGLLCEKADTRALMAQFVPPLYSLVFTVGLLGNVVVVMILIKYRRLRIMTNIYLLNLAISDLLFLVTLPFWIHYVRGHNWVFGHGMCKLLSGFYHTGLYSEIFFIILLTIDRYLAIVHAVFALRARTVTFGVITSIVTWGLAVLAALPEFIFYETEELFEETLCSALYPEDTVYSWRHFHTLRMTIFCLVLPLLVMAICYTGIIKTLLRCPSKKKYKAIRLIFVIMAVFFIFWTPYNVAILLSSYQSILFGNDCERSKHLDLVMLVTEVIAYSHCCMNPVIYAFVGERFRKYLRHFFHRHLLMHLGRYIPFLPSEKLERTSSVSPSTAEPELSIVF
Kind of assay: [125I]-human eotaxin binding to CCR-3, SPA assay. Conditions: inhibition of [125I]-human eotaxin binding; membranes of RBL-2H3 cells stably expressing CCR3; 4 hours at room temperature. From the text: Recombinant cells expressing human CCR-3 are captured by wheatgerm agglutinin (WGA) polyvinyltoluidene (PVT) SPA beads (available from Amersham), through a specific interaction between the WGA and carbohydrate residues of glycoproteins on the surface of the cells. [^125I]-human eotaxin (available from Amersham) binds specifically to CCR-3 receptors bringing the [^125I]-human eotaxin in close proximity to the SPA beads. Emitted â-particles from the [^125I]-human eotaxin excite, by its proximity, the fluorophore in the beads and produce light.
Preparation of Assay Buffer: 5.96 g HEPES and 7.0 g sodium chloride are dissolved in distilled water and 1 M aqueous CaCl2 (1 ml) and 1M aqueous MgCl2 (5 ml) are added. The pH is adjusted to 7.6 with NaOH and the solution made to a final volume of 1 l using distilled water. 5 g bovine serum albumin and 0.1 g sodium azide are then dissolved in the solution and the resulting buffer stored at 4° C. […]
Preparation of membranes: Confluent rat basophil leukaemia (RBL-2H3) cells stably expressing CCR3 are removed from tissue culture flasks using enzyme-free cell dissociation buffer and resuspended in phosphate-buffered saline. […] The resulting scintillations are counted using a Canberra Packard TopCount, each well being counted for 1 minute. […]

Molecules are shown by their SMILES.

Consider `COc1cccc(NC(=O)NCCCN2CCC(Oc3ccc(F)cc3)C2)c1` (centres unmarked) [Example 2, 1-{3-[3-(4-fluorophenoxy)pyrrolidine-1-yl]propyl}-3-(3-methoxyphenyl)-urea], for which the IC50 (as a rule, the point on the concentration scale where inhibition reaches its midpoint) is 270 nM. Compound `O=C(NCCCN1CCC(Oc2ccc(F)cc2)C1)Nc1ccc(F)c(F)c1` (centres unmarked) [Example 3] registered an IC50 of 446 nM.

(Values after US7754758B2, “Pyrrolidine derivatives acting as CCR3-receptor antagonists” (Novartis AG, priority 2004, dated 2010).)
